Laboratory results from patent publication EP4755888A1 (ILAb Co., Ltd., priority 2023, dated 2025).

target: PD-1/PD-L1 (Homo sapiens, UniProt Q9NZQ7); assay: TR-FRET PD-1/PD-L1 binding inhibition at the molecular level (free proteins); details: Tag1-PD-L1 and Tag2-PD-1 proteins, twelve concentrations from 200 nM, 2 hours at room temperature, read-out: FRET assay (IC50)
Procedure: In order to evaluate the inhibitory activity of the compounds synthesized according to the above Preparation Examples against PD-1/PD-L1 molecules in a free protein state,a TR-FRET (Time-Resolved Fluorescence Energy Transfer) experimetn was performed as described below.
Specifically, the compounds were prepared in a 96-well plate by serial dilution starting from 200 nM with 1/2 dilutions to obtain a total of twelve concentrations, and 2 µL of each compound solution was added to a 384-well plate. Thereafter, Tag1-PD-L1 protein and Tag2-PD-1 protein were each prepared at a 1x concentration, mixed at a ratio of 1:1, and 8 µL of the mixed solution was added to each well of the 384-well plate containing the compounds. Anti-Tag1 Eu Cryptate reagent and Anti-Tag2 XL665 antibody were each prepared at a 1* concentration, mixed at a ratio of 1:1, and 10 µL of the mixed solution was added to each well of the 384-well plate containing the compounds and proteins, followed by incubation at room temperature for 2 hours. Upon completion of the reaction, fluorescence signals at wavelengths of 620 nm and 665 nm were measured using a microplate reader.

Chain of PD-1/PD-L1 (Q9NZQ7 19-238 limits assumed): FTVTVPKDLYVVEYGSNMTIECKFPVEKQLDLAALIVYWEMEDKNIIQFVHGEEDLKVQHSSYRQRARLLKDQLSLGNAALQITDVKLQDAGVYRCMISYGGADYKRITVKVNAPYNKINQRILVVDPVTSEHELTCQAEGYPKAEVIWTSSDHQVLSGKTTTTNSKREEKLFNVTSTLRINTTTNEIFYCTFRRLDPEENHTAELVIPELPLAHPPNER

`O=C(Nc1cccc(-c2cccc(Nc3nccc4cc(CN5CC[C@@H](O)C5)cnc34)c2Cl)c1Cl)c1cc2n(n1)CCCC2N1CCC(O)CC1` (stereo partly drawn) [Compound 23, N-(2,2'-dichloro-3'-((3-(((R)-3-hydroxypyrrolidin-1-yl)methyl)-1,7-naphthyridin-8-yl)amino)-[1,1'-biphenyl]-3-yl)-4-(4-hydroxypiperidin-1-yl)-4,5,6,7-tetrahydropyrazolo[1,5-a]pyridine-2-carboxamide] and `O=C(Nc1cccc(-c2cccc(Nc3nccc4cc(CN5CC[C@@H](O)C5)cnc34)c2Cl)c1Cl)c1cc2n(n1)CCCC2N1CC[C@@H](O)C1` (stereo partly drawn) [Compound 25, N-(2,2'-dichloro-3'-((3-(((R)-3-hydroxypyrrolidin-1-yl)methyl)-1,7-naphthyridin-8-yl)amino)-[1,1'-biphenyl]-3-yl)-4-((R)-3-hydroxypyrrolidin-1-yl)-4,5,6,7-tetrahydropyrazolo[1,5-a]pyridine-2-carboxamide] fall in the same range of IC50: 0.01 to 0.1 µM for the first, 0.01 to 0.1 µM for the second.

First: O=C(Nc1cccc(-c2cccc(Nc3nccc4cc(CN5CC[C@@H](O)C5)cnc34)c2Cl)c1Cl)c1cc2n(n1)CCCC2N1CCC(C(=O)O)CC1 (stereo partly drawn) [Compound 24, 1-(2-((2,2'-dichloro-3'-((3-(((R)-3-hydroxypyrrolidin-1-yl)methyl)-1,7-naphthyridin-8-yl)amino)-[1,1'-biphenyl]-3-yl)carbamoyl)-4,5,6,7-tetrahydropyrazolo[1,5-a]pyridin-4-yl)piperidine-4-carboxylic acid]
Second: Cc1c(Nc2nccc3cc(CN4CC[C@@H](O)C4)cnc23)cccc1-c1cccc(NC(=O)c2cc3n(n2)CCCC3N2CC[C@@H](O)C2)c1Cl (stereo partly drawn) [Compound 29, N-(2-chloro-3'-((3-(((R)-3-hydroxypyrrolidin-1-yl)methyl)-1,7-naphthyridin-8-yl)amino)-2'-methyl-[1,1'-biphenyl]-3-yl)-4-((R)-3-hydroxypyrrolidin-1-yl)-4,5,6,7-tetrahydropyrazolo[1,5-a]pyridine-2-carboxamide]
The IC50 of the first is higher: 0.01 to 0.1 µM for the first, under 0.01 µM for the second. The second is the more potent here.

First: O=C(O)CNC1CCCn2nc(C(=O)Nc3cccc(-c4cccc(Nc5nccc6cc(CN7CC[C@@H](O)C7)cnc56)c4Cl)c3Cl)cc21 (stereo partly drawn) [Compound 26, 2-((2-((2,2'-dichloro-3'-((3-(((R)-3-hydroxypyrrolidin-1-yl)methyl)-1,7-naphthyridin-8-yl)amino)-[1,1'-biphenyl]-3-yl)carbamoyl)-4,5,6,7-tetrahydropyrazolo[1,5-a]pyridin-4-yl)amino)acetic acid]
Second: CC(C)(NC1CCCn2nc(C(=O)Nc3cccc(-c4cccc(Nc5nccc6cc(CN7CC[C@@H](O)C7)cnc56)c4Cl)c3Cl)cc21)C(=O)O (stereo partly drawn) [Compound 27, 2-((2-((2,2'-dichloro-3'-((3-(((R)-3-hydroxypyrrolidin-1-yl)methyl)-1,7-naphthyridin-8-yl)amino)-[1,1'-biphenyl]-3-yl)carbamoyl)-4,5,6,7-tetrahydropyrazolo[1,5-a]pyridin-4-yl)amino)-2-methylpropanoic acid]
The IC50 of the first is lower: under 0.01 µM for the first, 0.01 to 0.1 µM for the second.

`Cc1c(Nc2nccc3cc(CN4CC[C@@H](O)C4)cnc23)cccc1-c1cccc(NC(=O)c2cc3n(n2)CCCC3NCCO)c1Cl` (stereo partly drawn) [Compound 28, N-(2-chloro-3'-((3-(((R)-3-hydroxypyrrolidin-1-yl)methyl)-1,7-naphthyridin-8-yl)amino)-2'-methyl-[1,1'-biphenyl]-3-yl)-4-((2-hydroxyethyl)amino)-4,5,6,7-tetrahydropyrazolo[1,5-a]pyridine-2-carboxamide] and `CC(=O)NCCNC1CCCn2nc(C(=O)Nc3cccc(-c4cccc(Nc5nccc6cc(CN7CC[C@@H](O)C7)cnc56)c4C)c3Cl)cc21` (stereo partly drawn) [Compound 30, 4-((2-acetamidoethyl)amino)-N-(2-chloro-3'-((3-(((R)-3-hydroxypyrrolidin-1-yl)methyl)-1,7-naphthyridin-8-yl)amino)-2'-methyl-[1,1'-biphenyl]-3-yl)-4,5,6,7-tetrahydropyrazolo[1,5-a]pyridine-2-carboxamide] cannot be ordered by IC50: under 0.01 µM for the first, under 0.01 µM for the second.
